According to patent US20260294913A1, “COMBINATION THERAPY OF DACOMITINIB AND NINTEDANIB FOR PREVENTION OR TREATMENT OF PULMONARY FIBROSIS” (KOREA INSTITUTE OF RADIOLOGICAL & MEDICAL SCIENCES, priority 2023, published 2026):

System: mice with radiation-induced pulmonary fibrosis
Experiment: Inhibitory effect on radiation-induced pulmonary fibrosis in mice (micro-CT, H&E and Masson's Trichrome staining)
Type: in vivo, C57BL/6 mice
Settings: first dose 1 h prior to SBRT (90 Gy), two weeks after radiation, as compared to untreated group
Procedure: Seven-week-old male C57BL/6 mice were divided into groups receiving nintedanib, which is an FDA-approved pulmonary fibrosis inhibitor, dacomitinib, which is an EGFR TKI, and a combination thereof, and orally administered one hour prior to stereotactic body radiation therapy (SBRT) (90 Gy, 4 mm collimator). Two weeks after radiation, the degree of pulmonary fibrosis and the inhibitory effect on radiation-induced lung injury were observed.
The nintedanib group received 60 mg/kg daily, the dacomitinib group received 10 mg/kg daily, and the combination group received 60 mg/kg of nintedanib and 10 mg/kg of dacomitinib. All drugs were orally administered daily. In addition, to analyze the degree of inflammatory response and the degree of fibrosis, H&E staining and Masson's Trichrome staining were performed and the grade of pulmonary fibrosis and the degree of collagen deposition are graphically represented in FIG. 2.

Row | Structure (SMILES) | degree of pulmonary fibrosis (dacomitinib alone, 10 mg/kg daily oral) | degree of pulmonary fibrosis (nintedanib alone, 60 mg/kg daily oral)
1 | COc1cc2ncnc(Nc3ccc(F)c(Cl)c3)c2cc1NC(=O)/C=C/CN1CCCCC1 [dacomitinib, (E)-N-(4-((3-chloro-4-fluorophenyl)amino)-7-methoxyquinazolin-6-yl)-4-(piperidin-1-yl) but-2-enamide] | reduced fibrosis | –
2 | COC(=O)c1ccc2c(c1)NC(=O)/C2=C(\Nc1ccc(N(C)C(=O)CN2CCN(C)CC2)cc1)c1ccccc1 [nintedanib, methyl (3Z)-3-{[(4-(methyl[(4-methylpiperazin-1-yl)acetyl]amino}phenyl)amino](phenyl)methylidene)-2-oxo-2,3-dihydro-1H-indole-6-carboxylate] | – | reduced fibrosis
